pIC50: −log10 of the molar value.
target: T1, recombinant human Flag-tagged PARP7 (amino acids 456-657) (Homo sapiens, UniProt Q7Z3E1); assay: PARP7 biochemical DELFIA assay (auto-MARylation); settings: DELFIA readout, IC50 class
T1 construct: recombinant human Flag-tagged PARP7 (amino acids 456-657)
T1 sequence (Q7Z3E1 456-657): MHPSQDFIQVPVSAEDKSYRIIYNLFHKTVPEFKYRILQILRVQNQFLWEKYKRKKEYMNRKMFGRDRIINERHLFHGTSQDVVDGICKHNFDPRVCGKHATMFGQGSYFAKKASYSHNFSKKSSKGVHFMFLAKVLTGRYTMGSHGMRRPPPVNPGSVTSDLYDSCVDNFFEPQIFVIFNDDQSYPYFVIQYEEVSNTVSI
Procedure, shortened: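 Readout is DELFIA time-resolved Eu fluorescence (Ex337 nm, Em620 nm) of biotin-ADP-ribose on immobilised Flag-tagged PARP7 456-657. Enzyme (12.5-37.5 nM as added) sat 30 min with compound before biotin-NAD+ (15 μM solution, pH 7.5 HEPES buffer) started 2-3 h room-temperature self-modification, stopped with excess NAD+.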

| SMILES | pIC50 |
| --- | --- |
| O=C(CCOCCc1cccc2c(=O)[nH]c(=O)[nH]c12)N1CCN(c2ncc(C(F)(F)F)cn2)CC1 [Compound 45] | ≥ 7.00 |
| CC(COCCC(=O)N1CCN(c2nnc(C(F)(F)F)s2)CC1)n1nc(C(F)(F)F)c2c(=O)[nH]ncc21 (single isomer, unassigned) [Compound 291] | 6.00 to 7.00 |
| CC(COCCC(=O)N1CCN(c2ncc(C#N)o2)CC1)n1nc(C(F)(F)F)c2c(=O)[nH]ncc21 (stereo not shown) [Compound 329] | ≥ 7.00 |
| O=C(NCCOCc1cccc2c(=O)[nH]ncc12)C1CCN(c2ncc(C(F)(F)F)cn2)CC1 [Compound 110] | 6.00 to 7.00 |
| Cc1nn(C(C)COCCC(=O)N2CCN(c3ncc(Cl)cn3)CC2)c2cn[nH]c(=O)c12 (single isomer, unassigned) [Compound 335] | ≥ 7.00 |
| O=C(CCOCCc1cccc2c(=O)[nH]cnc12)N1CCN(c2ncc(C(F)(F)F)cn2)CC1 [Compound 16] | 6.00 to 7.00 |
| N#Cc1ccc(N2CCN(C(=O)c3cccc(CN4CCc5c4cn[nH]c5=O)c3)CC2)nc1 [Compound 5] | 5.00 to 6.00 |
| CC(COCCC(=O)N1CCN(c2cnc(C(F)(F)F)cn2)CC1)n1nc(C(F)(F)F)c2c(=O)[nH]ncc21 (single isomer, unassigned) [Compound 266] | ≥ 7.00 |
| CC(COCCC(=O)N1CCN(c2ncc(C(F)(F)F)s2)CC1)n1nc(C(F)(F)F)c2c(=O)[nH]ncc21 (single isomer, unassigned) [Compound 258] | ≥ 7.00 |
| Cc1ccc(N2CCN(C(=O)CCOCC(C)n3nc(C(F)(F)F)c4c(=O)[nH]ncc43)CC2)nc1 (stereo not shown) [Compound 334] | ≥ 7.00 |
| Cn1c(N2CCN(C(=O)CCOCCn3cc(C(F)(F)F)c4c(=O)[nH]ncc43)CC2)nc2ccccc21 [Compound 381] | ≥ 7.00 |
| CC(COCCC(=O)N1CCN(c2ncc(C(F)(F)F)s2)CC1)n1nc(C(F)(F)F)c2c(=O)[nH]ncc21 (stereo not shown) [Compound 259] | ≥ 7.00 |
| O=C(CCOCCN1C(=O)CCc2c1cn[nH]c2=O)N1CCN(c2ccc(C(F)(F)F)cn2)CC1 [Compound 240, 1-(2-(3-oxo-3-(4-(5-(trifluoromethyl)pyridin-2-yl)piperazin-1-yl)propoxy)ethyl)-4,6-dihydropyrido[2,3-d]pyridazine-2,5(1H,3H)-dione] | ≥ 7.00 |
| CC(COCCC(=O)N1CCN(c2ncccc2C#N)CC1)n1nc(C(F)(F)F)c2c(=O)[nH]ncc21 (single isomer, unassigned) [Compound 405] | 6.00 to 7.00 |
| Cn1c(N2CCN(C(=O)CCOCCn3nc(C(F)(F)F)c4c(=O)[nH]ncc43)CC2)nc2ccccc21 [Compound 195] | ≥ 7.00 |
| CC(COCCC(=O)N1CCN(c2ccc(Cl)cn2)CC1)n1nc(C(F)(F)F)c2c(=O)[nH]ncc21 (stereo not shown) [Compound 211] | ≥ 7.00 |
| CC(COCCC(=O)N1CCN(c2ccc(F)cn2)CC1)n1nc(C(F)(F)F)c2c(=O)[nH]ncc21 (stereo not shown) [Compound 348] | ≥ 7.00 |
| CC(COCCC(=O)N1CCN(c2ncccc2F)CC1)n1nc(C(F)(F)F)c2c(=O)[nH]ncc21 (stereo not shown) [Compound 369] | ≥ 7.00 |

| SMILES | pIC50 |
| --- | --- |
| CC(COCC(=O)N(C)C1CCN(c2ncc(C(F)(F)F)cn2)CC1)n1cc(C(F)(F)F)c2c(=O)[nH]ncc21 (single isomer, unassigned) [Compound 462] | ≥ 7.00 |
| CC(COCCC(=O)N1CCN(c2nc(C#N)cs2)CC1)n1nc(C(F)(F)F)c2c(=O)[nH]ncc21 (single isomer, unassigned) [Compound 250] | 5.00 to 6.00 |
| O=C(CCCOC(c1cccc2c(=O)[nH]ncc12)C(F)(F)F)N1CCN(c2ncc(C(F)(F)F)cn2)CC1 (single isomer, unassigned) [Compound 221, 5-(2,2,2-trifluoro-1-(4-oxo-4-(4-(5-(trifluoromethyl)pyrimidin-2-yl)piperazin-1-yl)butoxy)ethyl)phthalazin-1(2H)-one] | 6.00 to 7.00 |
| O=C(c1cccc(Cn2nc(C(F)(F)F)c3c(=O)[nH]ncc32)c1)N1CCN(c2ncc(C(F)(F)F)cn2)CC1 [Compound 407] | ≥ 7.00 |
| N#Cc1ccc(N2CCN(C(=O)CCOCCn3c(C(F)(F)F)cc4c(=O)[nH]ncc43)CC2)nc1 [Compound 78] | 6.00 to 7.00 |
| CC1(C)CN(C(=O)CCOCCn2cc(C(F)(F)F)c3c(=O)[nH]ncc32)CCN1c1ncc(C(F)(F)F)cn1 [Compound 358] | ≥ 7.00 |
| O=C(CCOCCc1cccc2c(=O)[nH]ncc12)N1CCN(c2cnc(C(F)(F)F)cn2)CC1 [Compound 105] | ≥ 7.00 |
| O=C(CCOCCn1cc(C(F)(F)F)c2c(=O)[nH]ncc21)N1CCN(c2ncc(C(F)(F)F)o2)CC1 [Compound 384] | ≥ 7.00 |
| CC(COCCC(=O)N1CCN(c2ncc(C#N)cn2)CC1)c1ccc(Cl)c2c(=O)[nH]ncc12 (stereo not shown) [Compound 415] | ≥ 7.00 |
| N#Cc1ccc(N2CCN(C(=O)Cc3cccc(Cc4cccc5c(=O)[nH]ncc45)c3)CC2)nc1 [Compound 38] | 5.00 to 6.00 |
| CC(COCCC(=O)N1CCN(c2ccc(C#N)cn2)CC1)n1ncc2c(=O)[nH]ncc21 (single isomer, unassigned) [Compound 189] | ≥ 7.00 |
| O=C(CCOCCc1cccc2c(=O)[nH]ncc12)N1CCN(c2ccc(OC(F)(F)F)cn2)CC1 [Compound 114] | ≥ 7.00 |
| CC1CN(c2ncc(C(F)(F)F)cn2)CCN1C(=O)CCOCCc1cccc2c(=O)[nH]ncc12 (stereo not shown) [Compound 88] | ≥ 7.00 |
| CC1CN(C(=O)CCOCCc2cccc3c(=O)[nH]ncc23)CCN1c1ncc(C(F)(F)F)cn1 (stereo not shown) [Compound 90] | ≥ 7.00 |
| CN(C(=O)COCCn1nc(C(F)(F)F)c2c(=O)[nH]ncc21)C1CCN(c2ncc(C(F)(F)F)cn2)CC1 [Compound 317, N-methyl-2-(2-(4-oxo-3-(trifluoromethyl)-4,5-dihydro-1H-pyrazolo[3,4-d]pyridazin-1-yl)ethoxy)-N-(1-(5-(trifluoromethyl)pyrimidin-2-yl)piperidin-4-yl)acetamide] | ≥ 7.00 |
| N#Cc1ccc(N2CCN(C(=O)c3cccc(Cc4cccc5c4C(=O)NC5=O)c3)CC2)nc1 [Compound 66] | 6.00 to 7.00 |
| N#Cc1ccc2nc(N3CCN(C(=O)CCOCCn4cc(C(F)(F)F)c5c(=O)[nH]ncc54)CC3)oc2c1 [Compound 362] | ≥ 7.00 |

More lines, now with the values ahead:

| pIC50 | SMILES |
| --- | --- |
| ≥ 7.00 | CN1CCN(CCOCCC(=O)N2CCN(c3ncc(C(F)(F)F)cn3)CC2)c2cn[nH]c(=O)c21 [Compound 55] |
| ≥ 7.00 | Cc1nn(CCOCCC(=O)N2CCN(c3ncc(C(F)(F)F)cn3)CC2C)c2cn[nH]c(=O)c12 (stereo not shown) [Compound 268] |
| 6.00 to 7.00 | O=C(CCOCCc1cccc2c(=O)[nH]nnc12)N1CCN(c2ncc(C(F)(F)F)cn2)CC1 [Compound 52] |
| ≥ 7.00 | O=C(OCC1CC1Cn1nc(C(F)(F)F)c2c(=O)[nH]ncc21)N1CCN(c2ncc(C(F)(F)F)cn2)CC1 (stereo not shown) [Compound 493] |
| ≥ 7.00 | O=C(CCOCCn1nc(C(F)(F)F)c2c(=O)[nH]ncc21)N1CCN(c2ncc(C(F)(F)F)cn2)CC1 [Compound 153, 1-(2-(3-oxo-3-(4-(5-(trifluoromethyl)pyrimidin-2-yl)piperazin-1-yl)propoxy)ethyl)-3-(trifluoromethyl)-1,5-dihydro-4H-pyrazolo[3,4-d]pyridazin-4-one] |
| ≥ 7.00 | CC(COCCn1ncc2c(=O)[nH]ncc21)C(=O)N1CCN(c2ncc(C(F)(F)F)cn2)CC1 (stereo not shown) [Compound 155] |
| ≥ 7.00 | CC(CCOCC(=O)N1CCN(c2ncc(C#N)cn2)CC1)n1nc(C(F)(F)F)c2c(=O)[nH]ncc21 (single isomer, unassigned) [Compound 497] |
| 5.00 to 6.00 | O=C(CCOCC(c1cccc2c(=O)[nH]ncc12)C(F)(F)F)N1CCN(c2ncc(C(F)(F)F)cn2)CC1 (stereo not shown) [Compound 426] |
| ≥ 7.00 | CC(C)c1cn(CCOCCC(=O)N2CCN(c3ncc(C(F)(F)F)cn3)CC2)c2cn[nH]c(=O)c12 [Compound 150] |
| ≥ 7.00 | Cc1cc(=O)n(CCOCCC(=O)N2CCN(c3ncc(C(F)(F)F)cn3)CC2)c2cn[nH]c(=O)c12 [Compound 470, 4-methyl-1-(2-(3-oxo-3-(4-(5-(trifluoromethyl)pyrimidin-2-yl)piperazin-1-yl)propoxy)ethyl)pyrido[2,3-d]pyridazine-2,5(1H,6H)-dione] |
| ≥ 7.00 | O=c1[nH]ncc2c1c(C(F)(F)F)nn2CCOCCS(=O)(=O)N1CCN(c2ncc(C(F)(F)F)cn2)CC1 [Compound 447] |
| ≥ 7.00 | CC1CN(c2ncc(C(F)(F)F)cn2)CCN1C(=O)CCOCCn1ncc2c(=O)[nH]ncc21 (stereo not shown) [Compound 143] |
| ≥ 7.00 | CC(COCCC(=O)N1CCN(c2ncc(C(C)(C)C)cn2)CC1)n1nc(C(F)(F)F)c2c(=O)[nH]ncc21 (single isomer, unassigned) [Compound 500] |
| ≥ 7.00 | O=C(CCOCCn1ncc2c(=O)[nH]ncc21)N1CCN(c2ncc(Cl)cn2)CC1 [Compound 147] |
| ≥ 7.00 | CC(CCOCC(=O)N1CCN(c2ncc(C(F)(F)F)cn2)CC1)n1nc(C(F)(F)F)c2c(=O)[nH]ncc21 (single isomer, unassigned) [Compound 328, 1-(4-(2-oxo-2-(4-(5-(trifluoromethyl)pyrimidin-2-yl)piperazin-1-yl)ethoxy)butan-2-yl)-3-(trifluoromethyl)-1,5-dihydro-4H-pyrazolo[3,4-d]pyridazin-4-one] |
| ≥ 7.00 | [2H]C([2H])(OCCC(=O)N1CCN(c2ncc(C(F)(F)F)cn2)CC1)C(C)n1nc(C(F)(F)F)c2c(=O)[nH]ncc21 (single isomer, unassigned) [Compound 423] |
| 5.00 to 6.00 | CC(COCCC(=O)N1CCN(c2ncc(C(F)(F)F)cn2)CC1)c1cccc2c(=O)[nH]ncc12 (single isomer, unassigned) [Compound 72, 5-(1-(3-oxo-3-(4-(5-(trifluoromethyl)pyrimidin-2-yl)piperazin-1-yl)propoxy)propan-2-yl)phthalazin-1(2H)-one] |

Source: US20240217968A1, “PHARMACEUTICAL COMPOUND” (DUKE STREET BIO LIMITED, priority 2021, published 2024)
